Measured values from ChEMBL document CHEMBL4385620, “Inhibition of polypeptide N-acetyl-α-galactosaminyltransferases is an underlying mechanism of dietary polyphenols preventing colorectal tumorigenesis” (Bioorg Med Chem, 2019).
pIC50, pKd: −log10 of the molar value. Active and inactive are the calls of the source. No cut-off for these calls is given here.

What was measured:
[1] = biological target: T1, Polypeptide N-acetylgalactosaminyltransferase 2 (Homo sapiens, UniProt Q10471); test: Inhibition of catalytic activity of human recombinant FLAG-tagged ppGalNAcT2 expressed in HEK293T cells and using 5-FAM labelled-EA2 peptide as substrate incubated for 30 mins by HPLC-based enzyme assay
T1 sequence (Q10471 whole entry): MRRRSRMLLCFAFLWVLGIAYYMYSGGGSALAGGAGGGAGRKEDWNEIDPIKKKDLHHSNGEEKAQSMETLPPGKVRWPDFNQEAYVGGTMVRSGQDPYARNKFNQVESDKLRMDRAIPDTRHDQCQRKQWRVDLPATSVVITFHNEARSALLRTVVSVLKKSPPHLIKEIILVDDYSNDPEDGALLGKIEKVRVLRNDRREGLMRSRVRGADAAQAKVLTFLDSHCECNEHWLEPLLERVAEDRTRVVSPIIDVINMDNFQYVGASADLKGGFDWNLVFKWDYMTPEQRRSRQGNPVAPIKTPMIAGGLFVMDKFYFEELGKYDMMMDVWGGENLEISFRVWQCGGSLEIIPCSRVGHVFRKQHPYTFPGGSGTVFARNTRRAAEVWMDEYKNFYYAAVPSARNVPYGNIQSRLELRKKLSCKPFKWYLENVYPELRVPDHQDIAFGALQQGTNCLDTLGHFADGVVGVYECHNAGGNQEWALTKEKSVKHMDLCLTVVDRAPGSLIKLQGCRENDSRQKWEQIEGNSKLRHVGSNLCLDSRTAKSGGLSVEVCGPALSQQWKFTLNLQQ

[2] = biological target: T1, Polypeptide N-acetylgalactosaminyltransferase 2; test: Binding affinity of human recombinant FLAG-tagged ppGalNAcT2 expressed in HEK293 cells assessed as dissociation constant by SPR analysis
[3] = biological target: T1, Polypeptide N-acetylgalactosaminyltransferase 2; test: Binding affinity of human recombinant FLAG-tagged ppGalNAcT2 expressed in HEK293 cells assessed as association rate by SPR analysis
[4] = biological target: T1, Polypeptide N-acetylgalactosaminyltransferase 2; test: Binding affinity of human recombinant FLAG-tagged ppGalNAcT2 expressed in HEK293 cells assessed as dissociation rate by SPR analysis
[5] = biological target: Polypeptide N-acetylgalactosaminyltransferase 2 (Homo sapiens, UniProt Q10471, W282A); test: Inhibition of catalytic activity of human recombinant FLAG-tagged ppGalNAcT2 W282A mutant expressed in HEK293 cells using EA2 peptide as substrate by HPLC-based enzyme assay
Chain of Polypeptide N-acetylgalactosaminyltransferase 2 (Homo sapiens, UniProt Q10471, W282A) (Q10471 whole entry W282A): as the sequence (Q10471 whole entry) above, with W282A counted along it

Homo sapiens = species: Homo sapiens; test: Ratio of IC50 for IC50 for human recombinant FLAG-tagged ppGalNAcT2 W282A mutant to IC50 for human recombinant FLAG-tagged ppGalNAcT2
[6] = biological target: T1, Polypeptide N-acetylgalactosaminyltransferase 2; test: Inhibition of ppGalNAcT2 in human HT-29 cells assessed as reduction in O-GalNAc glycans by measuring PNA lectin signal on cell surface at 40 uM incubated for 48 hrs by DAPI staining based immunofluorescence method

| SMILES | pIC50 [1] | pKd [2] | kon [3] | koff [4] | pIC50 [5] | Ratio IC50 (Homo sapiens) | inhibition [6] |
| --- | --- | --- | --- | --- | --- | --- | --- |
| O=C(O)c1cc(O)c(O)c(O)c1 [GALLIC ACID] | 5.86 | 6.03 | 1454 M⁻¹ s⁻¹ | 1.34 ×10⁻³ /s | – | – | – |
| O=c1oc2c(O)c(O)cc3c(=O)oc4c(O)c(O)cc1c4c23 [ELLAGIC ACID] | 6.29 | 6.43 | 2367 M⁻¹ s⁻¹ | 8.79 ×10⁻⁴ /s | 5.53 | 6 | Active |
| COc1c(O)cc2c(=O)oc3c(OC)c(O)cc4c(=O)oc1c2c34 | < 4.00 | – | – | – | – | – | – |
| c1cc2ccc3cccc4ccc(c1)c2c34 [PYRENE] | < 4.00 | – | – | – | – | – | inactive |
| O=c1oc2cc(O)ccc2c2ccccc12 | < 4.00 | – | – | – | – | – | – |
